Measured values taken from patent publication US4948786A, “Composition for treatment of ischemic disorder in organs” (Takeda Chemical Industries, Ltd., priority 1988, dated 1990).
Counter-ions that a name gives are not always drawn.

Legend:
[1] = test system: Lipid Peroxidation in Rat Brain Homogenate; settings: for Inhibitory Effect (%): final concentration 10^-4 M, 5% homogenate, pH 7.4, 37° C., 1 hour, vs DMSO reference, malonic dialdehyde by TBA method
Acute toxicity (LD50) = settings: in vivo, rat
[2] = test system: ischemic-reperfused rat heart; assay: Reducing activity against the size of infarction in ischemic-reperfused rat heart; type: in vivo, rat (Wistar male); settings: i.v.; for Size of Infarction (% of left ventrical) / Inhibition (% of Control): 30 minutes after ligation; for Size of Infarction (% of left ventrical): mean ± SEM, control 35.0 ± 2.9
Description: Reducing activity of α-EPC-Na(DL) against the size of infarction in ischemic-reperfused rat heart:
Wistar male rats (body weight […]) were anesthetized with pentobarbital and subjected to thoracetomy. The left anterior descending coronary artery (LAD) was ligated at its origin for 1 hour. Then, the ligation was released to allow reperfusion. After 30 to 60 minutes reperfusion, the chest was closed and the animals (rats) maintained in conscious state. After 24 hours, the animals (rats) were reanesthetized, and then the heart was excised. The left ventricles were cut parallel to the atrioventricular sulcus into slices. The slices were stained at 37° C. for 15 minutes using triphenyltetrazolium chloride, and the size of infarction was weighed.
α-EPC-Na dissolved in saline solution was administered into the femoral vein at doses of 0.3, 1 and 5 mg/kg 30 minutes after the ligation. For the control group, only saline solution was administered.

## CC(C)CCCC(C)CCCC(C)CCCC1(C)CCc2cc(OP(=O)(O)OC3=C(O)[C@@H]([C@@H](O)CO)OC3=O)ccc2O1 (mixture of isomers) [TPC-Na(DL), L-Ascorbic acid DL-tocoryl phosphate diester sodium salt]
[1]
  Inhibitory Effect (%): 35.7 ± 2.6%

## Cc1c(C)c2c(c(C)c1OP(=O)(O)OC1=C(O)[C@@H]([C@@H](O)CO)OC1=O)CCC(C)(CCCC(C)CCCC(C)CCCC(C)C)O2 (mixture of isomers) [α-EPC-Na(DL), L-Ascorbic acid, DL-α-tocopheryl phosphate diester sodium salt]
[1]
  Inhibitory Effect (%): 61.8 ± 38.1%
Acute toxicity (LD50); sc, subcutaneous administration
  LD50: 737 mg/kg
Acute toxicity (LD50); oral administration
  LD50: > 10000 mg/kg
[2]; 0.3 mg/kg
  Size of Infarction (% of left ventrical): 32.4 ± 4.3 % of left ventrical
[2]; 1.0 mg/kg
  Inhibition (% of Control): -22.3 % of Control
  Size of Infarction (% of left ventrical): 27.2 ± 2.8 % of left ventrical
[2]; 5 mg/kg
  size of myocardial infarction, reduced to: about 50%
[2]; 5.0 mg/kg
  Inhibition (% of Control): -47.7 % of Control
  Size of Infarction (% of left ventrical): 18.3 ± 1.1 % of left ventrical
[2]; 0.3, 1 and 5 mg/kg
  reduction of the size of myocardial infarction (in words): reduced the size of myocardial infarction dose-dependently

## Cc1cc(OP(=O)(O)OC2=C(O)[C@@H]([C@@H](O)CO)OC2=O)c(C)c2c1OC(C)(CCCC(C)CCCC(C)CCCC(C)C)CC2 (mixture of isomers) [β-EPC-K(DL), L-Ascorbic acid DL-β-tocopheryl phosphate diester potassium salt]
[1]
  Inhibitory Effect (%): 58.9 ± 19.4%

## Cc1c(C)c2c(c(C)c1O)CCC(C)(CCCC(C)CCCC(C)CCCC(C)C)O2 (racemic) [DL-α-tocopherol, reference compound]
[1]
  Inhibitory Effect (%): 50.8 ± 18.5%

## O=C1O[C@H]([C@@H](O)CO)C(O)=C1O [L-ascorbic acid, reference compound]
[1]; 10^-4 M, rat brain homogenate
  inhibition of lipid peroxidation (in words): did not inhibit lipid peroxidation
[1]
  Inhibitory Effect (%): 1.6 ± 15.0%

## Cc1c(OP(=O)(O)OC2=C(O)[C@@H]([C@@H](O)CO)OC2=O)cc2c(c1C)O[C@](C)(CCC[C@H](C)CCC[C@H](C)CCCC(C)C)CC2 [γ-EPC-K(D), L-Ascorbic acid D-γ-tocopheryl phosphate diester potassium salt]
[1]
  Inhibitory Effect (%): 62.0 ± 8.2%

## Cc1cc(OP(=O)(O)OC2=C(O)[C@@H]([C@@H](O)CO)OC2=O)cc2c1O[C@](C)(CCC[C@H](C)CCC[C@H](C)CCCC(C)C)CC2 [δ-EPC-K(D), L-ascorbic acid D-δ-tocopheryl phosphate diester]
[1]
  Inhibitory Effect (%): 38.1 ± 8.3%
